In US8524691B2, “Phosphonated rifamycins and uses thereof for the prevention and treatment of bone and joint infections” (The Medicines Company, priority 2008, dated 2013):
≈ marks a conversion by molar mass, not a printed value. Where two headings read alike, the source gives them in different places.

Experiments:
[1] = system: S. aureus ATCC 13709^A, Novobiocin and Rifampicin resistant variant; assay: Antibacterial susceptibility (MIC), NCCLS broth microdilution; type: cell-based
Outline: (§1)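 Two-fold serial dilutions in DMSO were tested in cation-adjusted Mueller Hinton broth, following NCCLS M26-A, at 5×10^5 c.f.u./mL with 1.25% DMSO final, in duplicate. Plates were incubated at 37 °C for 18 h. MIC was the lowest concentration inhibiting visible growth.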

S. aureus ATCC 29213 = assay: as above; type: cell-based; details: for Minimum inhibitory concentration, S. aureus ATCC 29213: CAMHB, 37° C., 18 h
Outline: as §1

S. aureus ATCC 13709 [2] = assay: microbe, parasite or virus in culture; type: cell-based; details: for Minimum inhibitory concentration, S. aureus ATCC 13709: CAMHB, 37° C., 18 h; for Antibacterial activity (in words, from Table 1): S. aureus MIC
Outline: as §1

S. aureus ATCC 13709 [3] = assay: microbe, parasite or virus in culture; type: cell-based; details: for Serum dependence of antibacterial activity (in words): MIC with versus without serum; for MIC: Staphylococcus aureus, ATCC13709, 18 h
[4] = type: in vitro ADME; details: for % Conversion (prodrug converted to parent drug after binding to bone): 24 h incubation, 37° C.
Protocol: Amounts of parent drug “regenerated” from the phosphonated prodrug were measured as follows. Washed bone powder-bound prodrugs from the above experiment were resuspended in 400 μL PBS+2% DMSO or in 400 μL 50% (v/v in PBS+2% DMSO) human or rat serum. The suspension was incubated overnight at 37° C., centrifuged at 13,000 rpm for 2 min and the supernatant was recovered. The amount of regenerated parent drug in the supernatant was determined by measurements using the microbiological assay that was previously described for the prodrugs themselves. The amount of prodrug was deduced from standard curves of known amounts of parent drug that were used as reference for each experiment. The amount of regenerated drug assessed by this bioassay was corroborated by MIC determination. The percentage of drug regenerated in PBS or serum after the overnight incubation (Table 2) was deduced from the difference between the amount of bound prodrug and the amount of regenerated drug (not shown).

[5] = system: Novobiocin resistant mutant strain of S. aureus ATCC 13709; assay: Prophylactic efficacy in rat model of S. aureus bone infection; type: in vivo; details: for Measured bacterial titer, test compound: 20 mg/kg parent drug equivalent, tibia 24 h postinfection; for Prophylactic activity in rat bone infection model (in words): 20 mg/kg, 1 day or 5 days prior to infection
Protocol: To determine the in vivo activity of bisphosphonated prodrugs of Rifamycin derived antibacterials in comparison to their non-bisphosphonated parents, compounds 18, 19, 48a, 59, 66, 89, 95, 102, 110, 142b and 164 and their parent drug rifabutin were used as prophylactic therapeutics in an animal model of infection. Specifically, a spontaneous Novobiocin resistant mutant strain of S. aureus ATCC 13709 (a clinical osteomyelitis isolate), was grown overnight at 37° C. in brain heart infusion broth (BHIB). After 16 h of growth, cells were subcultured into fresh BHIB and incubated for 4 to 5 h at 37° C. The cells were washed twice with phosphate-buffered saline (PBS) and resuspended in BHIB supplemented with 10% (vol./vol.) fetal bovine serum at a density of approximately 10^10 colony forming units (CFU)/ml (based upon turbidimetry). The suspension was aliquoted and a portion was used to check the CFU count. The culture was stored frozen (−80° C.) and was used without subculture. For use as an inoculum the culture was thawed, diluted in PBS and kept in an ice bath until it was used.
Animals were infected as described by O'Reilly et al. (Antimicrobial Agents and Chemotherapy (1992), 36(12): 2693-97) to generate the bone infection. Female CD rats (age, 57 to 70 days; n=5/group; Charles River, St-Constant, Canada) were anaesthetized by isofluorane before and during the surgery. Following complete induction of anesthesia, the rat was placed ventral side up and hair was shaved from the surgical site. The skin over the leg was cleaned and disinfected (proviodine-ethanol 70%). A longitudinal incision below the knee joint was made in the sagital plane. The incision was made over the bone below the “knee joint” (tibia head or condyle) but not completely extending to the ankle. A high speed drill fitted with a 2 mm bulb bit was used to drill a hole into the medullar cavity of the tibia. Rats were injected intra-tibially with 0.05 ml 5% sodium morrhuate (sclerosing agent) and then with 0.05 ml of S. aureus suspension (ca. 2×10^7 CFU/rat). The hole was sealed by applying a small amount of dry dental cement which immediately absorbs fluids and adheres to the site. The wound was closed using 3 metal skin clips. Moxifloxacin (as a positive control) was injected once at 10 mg/kg intravenously 1 h postinfection in saline, while the Rifabutin derived prodrugs (prepared in 0.9% saline) were injected at the dose indicated in Table 3 as a single intravenous bolus at different time points prior to the infection.
Infected rats were sacrificed by CO2 asphyxiation 24 h postinfection to monitor the bacterial CFU count. Infected tibiae were removed, dissected free of soft tissue, and weighed. The bones were ground, 50 mg of charcoal were added and the powder was resuspended in 5 ml 0.9% NaCl, serially diluted and processed for quantitative cultures. Treatment efficacy was measured in terms of Log viable bacteria (Log CFU per gram of bone). […] The limit of detection is 2 Log CFU. Statistical comparisons of viable bacterial counts for the different treated and untreated groups were performed with the Dunnett's multiple-comparison test. Differences were considered significant when the P value was <0.05 when comparing treated infected animals to the untreated infected ones. The doses used, the amount of time separating the treatment from the time of infection and the treatment outcomes are shown in Table 3.

[6] = single intravenous bolus 1 day prior to infection
[7] = single intravenous bolus 5 days prior to infection

Row | Compound | Minimum inhibitory concentration, S. aureus ATCC 13709^A [1] [µg/mL] | Minimum inhibitory concentration, S. aureus ATCC 29213 (S. aureus ATCC 29213) [µg/mL] | Minimum inhibitory concentration, S. aureus ATCC 13709 (S. aureus ATCC 13709 [2]) [µg/mL] | Antibacterial activity (in words, from Table 1) (S. aureus ATCC 13709 [2]) | Minimum inhibitory concentration, ATCC 13709 + 50% Human Serum (S. aureus ATCC 13709 [3]) [µg/mL] | Minimum inhibitory concentration, ATCC 13709 + 50% Mouse Serum (S. aureus ATCC 13709 [3]) [µg/mL] | Minimum inhibitory concentration, ATCC 13709 + 50% Rat Serum (S. aureus ATCC 13709 [3]) [µg/mL] | Release of parent rifabutin from bone powder-bound prodrug (in words) [4] | % Conversion (prodrug converted to parent drug after binding to bone) ([4]; 50% Heat Inactivated Rat Serum) [%] | % Conversion (prodrug converted to parent drug after binding to bone) ([4]; 50% Rat Serum) [%] | % Conversion (prodrug converted to parent drug after binding to bone) ([4]; PBS) [%] | Measured bacterial titer, test compound [5, 6] | Measured bacterial titer, test compound [5, 7] | Prophylactic activity in rat bone infection model (in words) [5] | Serum dependence of antibacterial activity (in words) (S. aureus ATCC 13709 [3]) | further results
1 | CO[C@H]1/C=C/O[C@@]2(C)Oc3c(C)c(O)c4c(c3C2=O)C2=NC3(CCN(CC(C)C)CC3)N(C(=O)OCc3cc(C)c(OC(=O)CCC(P(=O)(O)O)P(=O)(O)O)c(C)c3)C2=C(NC(=O)/C(C)=C\C=C\[C@H](C)[C@H](O)[C@@H](C)[C@@H](O)[C@@H](C)[C@H](OC(C)=O)[C@@H]1C)C4=O.N.N [Compound 19] | >128 | 0.25 | 0.25 | very low MICs whether in the absence or in the presence of serum | 0.125 | 0.0625 | 0.0156 | release significant amounts of the parent rifabutin once bound to bone powder, regardless of the presence of serum | 0.14 | 0.14 | 0.14 | 2.55 ± 0.69 Log CFU/g of bone | 3.69 ± 1.45 Log CFU/g of bone | active at 1 day and display activity similar to rifabutin at 5 days | – | –
2 | CCC(=O)OCOC(=O)N[C@@H](Cc1ccc(OCCCC(P(=O)(O)O)P(=O)(O)O)cc1)C(=O)N(C)CC(=O)O[C@@H]1[C@@H](C)[C@@H](O)[C@@H](C)[C@H](OC(C)=O)[C@H](C)[C@@H](OC)/C=C/O[C@@]2(C)Oc3c(C)c(O)c4c(c3C2=O)C2=NC3(CCN(CC(C)C)CC3)NC2=C(NC(=O)/C(C)=C\C=C\[C@@H]1C)C4=O.N.N [Compound 89] | >128 | 4 | 4 | – | 16 | 0.0625 | 0.0156 | regeneration is clearly accelerated by the presence of serum | 0.16 ± 0.04 | 0.18 | 0.02 | 2.05 ± 0.07 Log CFU/g of bone | 3.45 ± 1.36 Log CFU/g of bone | active at 1 day and display activity similar to rifabutin at 5 days | significant increase in antibacterial activity in serum | –
3 | CCC(=O)OCOC(=O)N[C@@H](CCCCNC(=O)CCC(P(=O)(O)O)P(=O)(O)O)C(=O)N(C)CC(=O)O[C@@H]1[C@@H](C)[C@@H](O)[C@@H](C)[C@H](OC(C)=O)[C@H](C)[C@@H](OC)/C=C/O[C@@]2(C)Oc3c(C)c(O)c4c(c3C2=O)C2=NC3(CCN(CC(C)C)CC3)NC2=C(NC(=O)/C(C)=C\C=C\[C@@H]1C)C4=O.N.N [Compound 95] | >128 | 4 | 4 | – | 16 | 0.0625 | 0.0156 | regeneration is clearly accelerated by the presence of serum | 0.13 | 0.14 ± 0.06 | 0.02 | 2.3 ± 0.57 Log CFU/g of bone | 3.75 ± 0.54 Log CFU/g of bone | active at 1 day and display activity similar to rifabutin at 5 days | significant increase in antibacterial activity in serum | –
4 | CCC(=O)OCOC(=O)N[C@@H](CCC(=O)NC(P(=O)(O)O)P(=O)(O)O)C(=O)N(C)CC(=O)O[C@@H]1[C@@H](C)[C@@H](O)[C@@H](C)[C@H](OC(C)=O)[C@H](C)[C@@H](OC)/C=C/O[C@@]2(C)Oc3c(C)c(O)c4c(c3C2=O)C2=NC3(CCN(CC(C)C)CC3)NC2=C(NC(=O)/C(C)=C\C=C\[C@@H]1C)C4=O [Compound 102] | – | – | – | – | – | – | – | – | – | – | – | 2.89 ± 1.13 Log CFU/g of bone | 5.38 ± 0.83 Log CFU/g of bone | active at 1 day and display activity similar to rifabutin at 5 days | significant increase in antibacterial activity in serum | MIC ([1]; Staphylococcus aureus, ATCC13709, read-out: Minimum inhibitory concentration, S. aureus ATCC 13709^A): > 128 µg/mL; MIC (S. aureus ATCC 29213; Staphylococcus aureus, ATCC29213, 18 h, read-out: Minimum inhibitory concentration, S. aureus ATCC 29213): 2 µg/mL (≈ 1.48 µM); MIC (S. aureus ATCC 13709 [2]; Staphylococcus aureus, ATCC13709, 18 h, read-out: Minimum inhibitory concentration, S. aureus ATCC 13709): 4 µg/mL (≈ 2.96 µM); MIC (S. aureus ATCC 13709 [3]; read-out: Minimum inhibitory concentration, ATCC 13709 + 50% Human Serum): 16 µg/mL; MIC (S. aureus ATCC 13709 [3]; read-out: Minimum inhibitory concentration, ATCC 13709 + 50% Mouse Serum): 0.0625 µg/mL; MIC (S. aureus ATCC 13709 [3]; read-out: Minimum inhibitory concentration, ATCC 13709 + 50% Rat Serum): 0.0156 µg/mL; Release of parent rifabutin from bone powder-bound prodrug (in words) ([4]; PBS versus serum): regeneration is clearly accelerated by the presence of serum
5 | CCN(CC)CC.CO[C@H]1/C=C/O[C@@]2(C)Oc3c(C)c(O)c4c(c3C2=O)C2=NC3(CCN(CC(C)C)CC3)NC2=C(NC(=O)/C(C)=C\C=C\[C@H](C)[C@H](OC(=O)CN(C)C(=O)Nc2ccc(CC(P(=O)(O)O)P(=O)(O)O)cc2)[C@@H](C)[C@@H](O)[C@@H](C)[C@H](OC(C)=O)[C@@H]1C)C4=O [Compound 142b] | >128 | 0.0625 | 0.125 | very low MICs whether in the absence or in the presence of serum | 0.5 | 0.0625 | 0.008 | release significant amounts of the parent rifabutin once bound to bone powder, regardless of the presence of serum | 0.24 ± 0.04 | 0.22 ± 0.06 | 0.37 ± 0.08 | 2.14 ± 0.08 Log CFU/g of bone | 4.79 ± 1.40 Log CFU/g of bone | – | – | –
